Results from ChEMBL document CHEMBL1157538, “Discovery of a potent, selective, and orally bioavailable c-Met inhibitor: 1-(2-hydroxy-2-methylpropyl)-N-(5-(7-methoxyquinolin-4-yloxy)pyridin-2-yl)-5-methyl-3-oxo-2-phenyl-2,3-dihydro-1H-pyrazole-4-carboxamide (AMG 458)” (J Med Chem, 2008).

Legend:
[1] = Intrinsic clearance in Sprague-Dawley rat liver microsome; type: ADME; conditions: liver microsomes
[2] = Half life in rat; type: ADME, organism-based; conditions: in vivo
Mus musculus = test: Inhibition of HGF-mediated c-Met phosphorylation in BALB/c mouse liver at 30 mg/kg, po after 6 hrs; type: functional; design: scale not given: the % may be the effect or the level left
[3] = Oral bioavailability in rat; type: ADME, organism-based; conditions: in vivo
[4] = Clearance in rat; type: ADME, organism-based; conditions: in vivo
[5] = Intrinsic clearance in human liver microsome; type: ADME; conditions: liver microsomes
[6] = Intrinsic clearance in BALB/c mouse liver microsome; type: ADME; conditions: liver microsomes

- microsomal CLint [1]: < 60 µL/min/mg
- half-life [2]: 1.9 h
- bioavailability [3]: > 50%
- clearance [4]: < 3.33 mL/min/kg
- microsomal CLint [5]: < 55 µL/min/mg
- microsomal CLint [6]: < 45 µL/min/mg
SMILES: COc1ccc2c(Oc3ccc(NC(=O)c4c(C)n(C[C@@H](C)O)n(-c5ccccc5)c4=O)cc3F)ccnc2c1
- Activity (Mus musculus): 98%
